From patent publication US8906925B2, “Pyrido[4,3-B]indoles containing rigid moieties” (Medivation Technologies, Inc., priority 2008, dated 2014) come the findings set out here.

The structures appear in SMILES notation. Values joined by “and” are separate entries in the source; they are usually repeats but may differ in a detail not shown here. Identical values can stand only once. Like-named read-outs stand apart in the source and are kept apart here.

As a reminder, the inhibition is the change of the read-out against control, counted positive when it falls.

The target of one experiment is histamine receptor H1 (Homo sapiens, UniProt P35367). Briefly: Histamine H1 radioligand binding ([3H]Pyrilamine). The note with it: for inhibition at 1 µM: read-out: Histamine Binding (1 μM) H1, percent inhibition of specific binding, 1 μM. An outline of the steps: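 Values are percent inhibition of specific [3H]pyrilamine (1.2 nM) binding with compounds at ≤1 μM (1% DMSO vehicle); 180 min incubation at 25 °C, pH 7.4 Tris buffer, on CHO-expressed human H1 receptor; 1 μM pyrilamine defined nonspecific binding, bound ligand counted after filtration.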
Chain of histamine receptor H1 (P35367 whole entry): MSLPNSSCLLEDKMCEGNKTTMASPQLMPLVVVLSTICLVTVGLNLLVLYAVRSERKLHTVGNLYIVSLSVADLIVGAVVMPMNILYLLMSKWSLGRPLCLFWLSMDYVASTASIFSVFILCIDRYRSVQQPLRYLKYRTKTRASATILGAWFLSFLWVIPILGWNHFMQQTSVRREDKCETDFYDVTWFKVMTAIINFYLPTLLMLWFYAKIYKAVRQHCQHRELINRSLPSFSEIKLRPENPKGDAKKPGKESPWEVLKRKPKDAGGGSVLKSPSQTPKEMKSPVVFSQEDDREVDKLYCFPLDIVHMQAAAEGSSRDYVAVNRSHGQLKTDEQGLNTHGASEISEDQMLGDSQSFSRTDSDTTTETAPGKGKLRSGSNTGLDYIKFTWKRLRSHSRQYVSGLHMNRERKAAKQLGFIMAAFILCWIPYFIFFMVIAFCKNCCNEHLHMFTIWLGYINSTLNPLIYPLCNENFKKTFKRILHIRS

For experiment [1], the target named is T1, human recombinant histamine H2 receptor (Homo sapiens, UniProt P25021).
T1 construct: expressed in transfected cells; host or cells: Chinese hamster ovary (CHO) K1 cells
T1 sequence (P25021 whole entry): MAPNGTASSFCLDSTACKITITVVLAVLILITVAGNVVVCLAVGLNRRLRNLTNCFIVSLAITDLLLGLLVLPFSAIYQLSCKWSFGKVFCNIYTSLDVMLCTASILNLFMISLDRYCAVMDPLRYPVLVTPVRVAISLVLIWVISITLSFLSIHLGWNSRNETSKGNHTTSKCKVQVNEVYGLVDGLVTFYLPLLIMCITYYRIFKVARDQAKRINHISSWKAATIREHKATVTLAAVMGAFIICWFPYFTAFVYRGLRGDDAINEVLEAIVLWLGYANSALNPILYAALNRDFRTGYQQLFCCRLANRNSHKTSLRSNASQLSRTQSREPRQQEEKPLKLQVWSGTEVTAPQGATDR
As to the kind of experiment: Histamine H2 radioligand binding ([125I]Aminopotentidine). The note with it: for inhibition at 1 µM: read-out: Histamine Binding (1 μM) H2, percent inhibition of specific binding, 1 μM. An outline of the steps:
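Receptor source: human recombinant H2 in CHO-K1 cells, assayed in 50 mM phosphate pH 7.4. Competition against 0.1 nM [125I]aminopotentidine, 120 min, 25 °C; 3 μM tiotidine sets nonspecific binding, filter-bound counts give specific binding.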

For experiment [2], the target named is T2, human recombinant adrenergic α2A receptor (Homo sapiens, UniProt P08913).
T2 construct: expressed in transfected cells; host or cells: insect Sf9 cells
T2 sequence (P08913 1-465): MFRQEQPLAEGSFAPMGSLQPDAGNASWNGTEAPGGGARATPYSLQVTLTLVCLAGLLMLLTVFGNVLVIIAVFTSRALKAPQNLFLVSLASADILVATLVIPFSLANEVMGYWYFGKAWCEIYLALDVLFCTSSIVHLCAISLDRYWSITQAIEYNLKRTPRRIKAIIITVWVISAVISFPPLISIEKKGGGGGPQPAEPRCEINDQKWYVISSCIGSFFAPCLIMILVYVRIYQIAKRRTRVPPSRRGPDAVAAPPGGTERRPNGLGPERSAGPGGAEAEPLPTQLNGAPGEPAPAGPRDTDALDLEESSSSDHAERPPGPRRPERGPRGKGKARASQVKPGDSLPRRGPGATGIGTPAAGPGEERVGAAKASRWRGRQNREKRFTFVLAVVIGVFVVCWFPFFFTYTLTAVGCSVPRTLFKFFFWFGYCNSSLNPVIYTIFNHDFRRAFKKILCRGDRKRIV
As to the kind of experiment: Adrenergic α2A radioligand binding ([3H]MK-912). The note with it: compound at 1 μM. In short, it runs like this: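 Sf9-expressed human receptor in 50 mM Tris-HCl pH 7.4, 12.5 mM MgCl2, 2 mM EDTA; compounds at 1 μM or lower (1% DMSO) incubated with 1 nM [3H]MK-912 for 60 min at 25° C. Non-specific binding defined with 10 μM WB-4101; filtered bound radioactivity counted, reported as percent inhibition of specific binding.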

The target in experiment [3] is T3, human recombinant adrenergic α2B receptor (Homo sapiens, UniProt P18089).
T3 construct: expressed in transfected cells; host or cells: Chinese hamster ovary (CHO-K1) cells
T3 sequence (P18089 1-450): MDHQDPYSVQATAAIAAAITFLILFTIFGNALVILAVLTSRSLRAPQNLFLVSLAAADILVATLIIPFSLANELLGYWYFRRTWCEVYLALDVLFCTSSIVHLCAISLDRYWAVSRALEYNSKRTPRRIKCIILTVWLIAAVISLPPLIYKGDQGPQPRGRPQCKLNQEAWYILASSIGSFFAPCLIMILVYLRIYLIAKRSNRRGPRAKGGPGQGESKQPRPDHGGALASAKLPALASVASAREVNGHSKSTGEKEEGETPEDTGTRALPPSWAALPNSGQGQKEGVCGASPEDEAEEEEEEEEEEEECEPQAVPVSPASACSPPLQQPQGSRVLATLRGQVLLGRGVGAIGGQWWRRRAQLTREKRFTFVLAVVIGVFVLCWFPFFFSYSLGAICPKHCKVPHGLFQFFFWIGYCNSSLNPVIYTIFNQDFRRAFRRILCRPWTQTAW
As to the kind of experiment: Adrenergic α2B radioligand binding ([3H]Rauwolscine). The conditions noted are these: compound at 1 μM. In short, it runs like this: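 Membranes from CHO-K1 cells expressing the receptor were incubated with 2.5 nM [3H]Rauwolscine for 60 min at 25 °C in Tris-HCl buffer pH 7.4 with MgCl2, EDTA and BSA. Non-specific binding was defined with 10 μM prazosin. Compounds were tested at ≤1 μM in 1% DMSO and read out as % inhibition of specific binding after filtration.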

Experiment [4] addresses human dopamine D2L receptor (Homo sapiens, UniProt P14416). As to the kind of experiment: Dopamine D2L radioligand binding ([3H]Spiperone). The note with it: compound at 1 μM; for Inhibition of ligand binding, Dopamine D2L: 1 µM. An excerpt:
Non-specific binding was estimated in the presence of […] Haloperidol. Receptor proteins were filtered and washed, the filters were then counted to determine [^3H]Spiperone specifically bound. […] Biochemical assay results are presented as the percent inhibition of specific binding in Table 9.

[5] abbreviates: percent inhibition of specific binding, 1 µM.
Setting [6] is: percent inhibition of specific binding.
Setting [7] is: percent inhibition of specific binding, read-out: Inhibition of ligand binding, Adrenergic α2A.
Setting [8] is: percent inhibition of specific binding, read-out: Inhibition of ligand binding, Adrenergic α2B.
The mark [9] stands for this setting: percent inhibition of specific binding, read-out: Inhibition of ligand binding, Dopamine D2L.

Chain of human dopamine D2L receptor (P14416 whole entry): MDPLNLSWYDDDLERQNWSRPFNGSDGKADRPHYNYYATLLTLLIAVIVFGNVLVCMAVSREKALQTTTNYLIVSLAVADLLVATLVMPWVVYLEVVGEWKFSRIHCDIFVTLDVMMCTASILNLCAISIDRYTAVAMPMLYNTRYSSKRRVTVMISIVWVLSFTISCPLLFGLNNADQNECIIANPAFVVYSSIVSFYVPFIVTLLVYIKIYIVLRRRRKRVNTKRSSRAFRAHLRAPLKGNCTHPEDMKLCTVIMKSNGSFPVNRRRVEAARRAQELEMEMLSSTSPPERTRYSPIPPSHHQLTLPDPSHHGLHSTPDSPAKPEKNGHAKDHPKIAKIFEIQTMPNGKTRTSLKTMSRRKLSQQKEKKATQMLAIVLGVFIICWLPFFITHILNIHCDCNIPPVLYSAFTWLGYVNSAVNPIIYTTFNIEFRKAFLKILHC

Take `C/C(=C\n1c2c(c3cc(Cl)ccc31)CN(C)CC2)c1ccc(Cl)cc1Cl` [Compound 210, (E)-8-chloro-5-(2-(2,4-dichlorophenyl)prop-1-enyl)-2-methyl-2,3,4,5-tetrahydro-1H-pyrido[4,3-b]indole]: on histamine receptor H1, the “Histamine Binding (1 μM) H1, percent inhibition of specific binding” value is listed as 53%. For the same compound, in experiment [1] (1 μM), the “Histamine Binding (1 μM) H2, percent inhibition of specific binding” value was 96%. In addition, in experiment [2] (setting [5]), the “Inhibition of ligand binding, Adrenergic α2A” value is reported as 79%. In addition, the “Inhibition of ligand binding, Adrenergic α2B” value in experiment [3] (setting [5]) is on record as 102%. Besides, in experiment [4] (setting [6]), the “Inhibition of ligand binding, Dopamine D2L” value is on record as 52%.
For `CN1CCc2c(c3cc(C(=O)O)ccc3n2C#Cc2ccc(F)cc2)C1` [Compound No. 482, 5-((4-fluorophenyl)ethynyl)-2-methyl-2,3,4,5-tetrahydro-1H-pyrido[4,3-b]indole-8-carboxylic acid], the inhibition at 1 µM is 13% at histamine receptor H1; -3% in experiment [1]; 8% in experiment [2] (read-out: Inhibition of ligand binding, Adrenergic α2A (percent inhibition of specific binding)); 6% in experiment [3] ([…] [3H]Rauwolscine, read-out: Inhibition of ligand binding, Adrenergic α2B (percent inhibition of specific binding)); -2% in experiment [4] ([…] [3H]Spiperone, read-out: Inhibition of ligand binding, Dopamine D2L (percent inhibition of specific binding)).
Regarding `CN1CCc2c(c3cc(Cl)ccc3n2C2=C(c3cccnc3)CCCC2)C1` [Compound No. 166, 8-chloro-2-methyl-5-(2-(pyridin-3-yl)cyclohex-1-enyl)-2,3,4,5-tetrahydro-1H-pyrido[4,3-b]indole], the inhibition at 1 µM is 14% on histamine receptor H1; 56% in experiment [1]; 44% in experiment [2] (setting [7]); 63% in experiment [3] (setting [8]); -2% in experiment [4] (setting [9]).
For `CN1CCc2c(c3cc(Cl)ccc3n2CC(O)(c2ccc(F)cc2)C2CC2)C1` (centres unmarked) [Compound 82, 2-(8-chloro-1,2,3,4-tetrahydro-2-methylpyrido[4,3-b]indol-5-yl)-1-cyclopropyl-1-(4-fluorophenyl)ethanol], the “Histamine Binding (1 μM) H1, percent inhibition of specific binding” value on histamine receptor H1 is 35% and 64%. In addition, the inhibition at 1 µM is 99% in experiment [1], 96% in experiment [2] (setting [7]), 99% in experiment [3] (setting [8]) and 39% in experiment [4] (setting [9]). Also, in experiment [4] (setting [6]), the “Inhibition of ligand binding, Dopamine D2L” value came out at 45%.
Regarding `CN1CCc2c(c3cc(Cl)ccc3n2C/C=C/c2ccncc2)C1` [Compound 127, 8-chloro-2,3,4,5-tetrahydro-2-methyl-5-((E)-3-(pyridin-4-yl)allyl)-1H-pyrido[4,3-b]indole], the inhibition at 1 µM amounted to 100% at histamine receptor H1; 22% in experiment [1]; 60% in experiment [2] (setting [7]); 68% in experiment [3] (setting [8]); 10% in experiment [4] (setting [9]).
